Data: patent publication US20150174144A1, “TETRACYCLINE COMPOUNDS FOR TREATING NEURODEGENERATIVE DISORDERS” (PARATEK PHARMACEUTICALS, INC., priority 2012, published 2015)
“And” between values parts separate entries of the source, which are not always exact repeats. Identical values can stand only once. Like-named read-outs stand apart in the source and are kept apart here.

Assays:
[1] = test system: cerebellar granule neurons; test: Glutamate-induced neurodegeneration in cerebellar granule neurons (MTT); format: cell-based, C57BL/6 mouse; details: Mus musculus, Neuron
Description: The method for isolation of cerebellar granule neurons has been previously described in published studies. Neonate C57BL/6 mouse pups, 7-8 days old, are obtained. Heads are removed and rinsed in 70% alcohol and transfered to an 85 mm dish filled with PBS on ice. Heads are cut, the brains removed, and the cerebella dissected and placed in a 50 mm dish with PBS on ice. The meninges, choroids plexus and blood vessels are removed from the cerebellum and the cleaned organ is transferred to a 35 mm dish with Hank's buffered salt solution (HBSS) containing Ca^2+ and Mg^2+. Each cerebellum is cut into pieces and incubated with trypsin solution at 37° C. for 10 minutes, after which 0.5 mg/ml (final concentration) trypsin inhibitor and 0.1 mg/ml (final concentration) DNAse are added. After centrifugation, cerebellar fragments are resuspended in dissociation medium (HBSS with Ca^2+, Mg^2+, trypsin inhibitor, DNAse) and a single cell suspension generated by agitation with a Pasteur pipette. After the coarse debris settles, the supernatant (cell suspension) is passed through a cell strainer (40 μm, Becton Dickinson #1942501) into a 50 ml sterile tube and the cells centrifuged. Cells are washed and re-suspended in culture medium (BME Basal Medium containing 10% fetal bovine serum, 100 IU/ml penicillin/streptomycin, 10 mM HEPES, 25 mM KCl, 2 mM L-glutamine).
The cell suspension is transferred to poly-D-lysine-coated dishes and incubated for 25 min at 37° C. in 5% CO2. After incubation, the non-adherent cells are removed and counted with a hemocytometer. A suspension of 0.9×10^6 cells/ml is prepared in culture medium, and 100 μL volumes are added per well (250,000 cells/cm^2) in poly-D-Lysine coated 96-well plates. One day after plating, cytosine arabinoside (AraC) is added to a final concentration of 10 μM. After 6-8 days of in vitro culture, the neurons are ready to be used in the assay.
To test the activity of Compound 1 and minocycline, compounds were added to the neuron cultures at varying concentrations. Buffer was added to some cells as a negative control. After pre-incubation with compound for 30 minutes at 5% CO2, 37° C., glutamate was added at a final concentration of […] and the cells further incubated for 1 hour. Glutamate was not added to some cells as a positive control for cell survival. After the 1 hr period, cells were washed once with culture medium and 100 μL of fresh medium were added per well. Compounds were re-added to the cells and the cultures were incubated overnight at 5% CO2, 37° C. […] Spectrophotometric absorbance at wavelength 570 nm was measured using a microplate reader.
The MTT absorbance for non-stimulated cells was considered the 100% survival level.

in vivo = details: for Kp at 0.5 hr / Kp at 1 hr / Kp at 2 hr / Kp at 4 hr / concentration at 0.5 hr / concentration at 1 hr / concentration at 2 hr / concentration at 4 hr: ip, 10 mg/kg
Experimental: Compounds were administered via the indicated routes and blood samples were removed at various times up to 24 hr. Concentration of compound was determined by LC/MS.

[2] = test system: animal models of MS and neuroprotection; test: Accepted animal models of MS and neuroprotection (Table 2); set-up: concentration or dose not given beside the values; details: in vivo
[3] = molecular target: T1, recombinant human matrix metalloproteinase-9 (MMP-9) (Homo sapiens, UniProt P14780); test: MMP-9 enzyme activity assay (cell-free); format: biochemical
T1 construct: an aliquot of active recombinant human matrix metalloproteinase-9 (MMP-9)(CalBioChem) was added; purchased CalBioChem
Experimental: Compound 1 was tested to determine specific anti-inflammatory characteristics. In vitro assays to assess the inhibition of substrate cleavage by matrix metalloproteinase 9 (MMP-9) and the inhibition of TNFα production by lipopolysaccharide (LPS)-activated macrophages were performed. MMP-9 activity was determined by fluorescence after incubation of recombinant MMP-9 with fluorescein-conjugated DQ gelatin for 90 min. TNFα production was determined by incubation of 10 ng/ml LPS with RAW264.7 macrophage cells for 24 h, followed by quantitation of TNFα in culture supernatant by ELISA.
This assay was designed to measure the degradation of substrate by purified enzyme. To a solution containing 2.5 μg/ml fluorescein-conjugated DQ gelatin (Invitrogen) in buffer (50 mM Tris-HCl, 150 mM NaCl, 5 mM CaCl2, 0.2 mM sodium azide, pH 7.6), tetracycline compounds were added at final concentrations ranging from 100 to 1 μM. Subsequently, an aliquot of active recombinant human matrix metalloproteinase-9 (MMP-9)(CalBioChem) was added to a final concentration of 0.05 μg/ml. The total volume of the reaction mixture was 200 μL and samples were contained in 96-well black plates (Corning). The mixture was incubated at room temperature in the dark for 85 min, after which the fluorescence was measured using a microplate reader. Samples containing no MMP-9 enzyme were used as negative controls and samples with enzyme and without compound were positive controls.

[4] = Table 4, unit inferred, read-out: Neuroprotection (mouse CGN)
[5] = concentration at which 50% of the maximum response is observed, read-out: EC50, survival of glutamate-stimulated cerebellar granule neurons
[6] = Table 4, unit inferred, read-out: MMP-9 activity (cell-free)
[7] = Table 11, read-out: MMP-9 Activity (cell-free) IC50

T1 sequence (P14780 107-707 limits assumed): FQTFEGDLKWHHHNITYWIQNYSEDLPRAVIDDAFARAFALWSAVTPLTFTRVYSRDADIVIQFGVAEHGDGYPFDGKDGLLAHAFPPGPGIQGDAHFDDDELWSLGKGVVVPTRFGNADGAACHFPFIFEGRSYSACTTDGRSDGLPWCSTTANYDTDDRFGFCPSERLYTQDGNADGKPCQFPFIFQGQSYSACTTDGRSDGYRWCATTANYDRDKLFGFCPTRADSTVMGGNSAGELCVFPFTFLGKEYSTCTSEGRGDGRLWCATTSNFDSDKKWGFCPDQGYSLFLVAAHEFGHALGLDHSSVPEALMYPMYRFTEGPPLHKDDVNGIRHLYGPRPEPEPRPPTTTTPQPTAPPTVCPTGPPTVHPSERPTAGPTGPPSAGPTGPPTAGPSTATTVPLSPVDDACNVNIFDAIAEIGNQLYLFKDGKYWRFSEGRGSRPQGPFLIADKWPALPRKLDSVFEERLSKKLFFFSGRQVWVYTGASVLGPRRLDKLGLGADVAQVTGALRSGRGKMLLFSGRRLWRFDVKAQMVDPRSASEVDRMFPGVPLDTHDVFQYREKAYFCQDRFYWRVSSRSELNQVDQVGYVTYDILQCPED

SMILES | EC50 [1, 4] [µM] | EC50 [1, 5] [µM] | AUC (in vivo; monkey, iv, 5 mg/kg) [µM·h] | Cmax (in vivo; monkey, iv, 5 mg/kg) [µM] | half-life (in vivo; monkey, iv, 5 mg/kg) [h] | AUC (in vivo; monkey, po, 5 mg/kg) [µM·h] | Cmax (in vivo; monkey, po, 5 mg/kg) [µM] | Tmax (in vivo; monkey, po, 5 mg/kg) [h] | bioavailability (in vivo; monkey, po, 5 mg/kg) [%] | AUC (in vivo; rat, po, 5 mg/kg) [µM·h] | Cmax (in vivo; rat, po, 5 mg/kg) [µM] | Tmax (in vivo; rat, po, 5 mg/kg) [h] | bioavailability (in vivo; rat, po, 5 mg/kg) [%] | % Inhibition Axon Loss [2] [%] | % Inhibition Clinical Score [2] [%] | % Inhibition Demyelination [2] [%] | % Inhibition Inflammation [2] [%] | IC50 [3, 6] [µM] | IC50 [3, 7] [µM] | further results
CCc1cc(N(C)C)c2c(c1O)C(=O)C1=C(O)[C@]3(O)C(=O)C(C(N)=O)=C(O)[C@@H](N(C)C)[C@@H]3C[C@@H]1C2 [Compound 1] | 2.6 ± 0.9 | 2.6 | 70 | 28.5 | 5.7 | 46.7 | 8.6 | 3 | 66.9 | 14.3 | 1.25 | 2 | 26 | 70 | 65 | 69 | 74 | 29 | 32.7 | Kp at 0.5 hr (in vivo; mouse, in vivo): 0.179; Kp at 1 hr (in vivo; mouse, in vivo): 0.284; Kp at 2 hr (in vivo; mouse, in vivo): 0.568; Kp at 4 hr (in vivo; mouse, in vivo): 1.17; concentration at 0.5 hr (in vivo; mouse, in vivo): 6860 ng/mL and 1230 ng/g; concentration at 1 hr (in vivo; mouse, in vivo): 6360 ng/mL and 1810 ng/g; concentration at 2 hr (in vivo; mouse, in vivo): 7020 ng/mL and 3990 ng/g; concentration at 4 hr (in vivo; mouse, in vivo): 3680 ng/mL and 4310 ng/g; half-life (in vivo; rat): 3.5 h; AUC (in vivo; rat, iv, 5 mg/kg): 54.4 µM·h; Cmax (in vivo; rat, iv, 5 mg/kg): 27.9 µM
CN(C)c1ccc(O)c2c1C[C@H]1C[C@H]3[C@H](N(C)C)C(O)=C(C(N)=O)C(=O)[C@@]3(O)C(O)=C1C2=O [Minocycline, minocycline, reference compound] | 1.4 ± 0.1 | 1.4 | 55.8 | 29.9 | 10.4 | 44.6 | 4.4 | 3 | 80.1 | 3.6 | 0.4 | 1.7 | 30.7 | 38 | 40 | 34 | 43 | 43.2 | 43.2 | concentration at 0.5 hr (in vivo; brain): 138 ng/g; concentration at 1 hr (in vivo; brain): 380 ng/g; concentration at 2 hr (in vivo; brain): 317 ng/g; concentration at 4 hr (in vivo; brain): 327 ng/g; Kp at 0.5 hr (in vivo; brain/plasma): 0.095; Kp at 1 hr (in vivo; brain/plasma): 0.253; Kp at 2 hr (in vivo; brain/plasma): 0.508; Kp at 4 hr (in vivo; brain/plasma): 0.688; concentration at 0.5 hr (in vivo; plasma): 1450 ng/mL; concentration at 1 hr (in vivo; plasma): 1500 ng/mL; concentration at 2 hr (in vivo; plasma): 623 ng/mL; concentration at 4 hr (in vivo; plasma): 475 ng/mL; AUC (in vivo; rat, iv, 1 mg/kg): 2.4 µM·h; Cmax (in vivo; rat, iv, 1 mg/kg): 0.93 µM; half-life (in vivo; rat, iv, 1 mg/kg): 3.6 h
